{"source": "patent US20110077702A1", "about": "“Means and Methods for Influencing Electrical Activity of Cells” (Academisch Medisch Centrum Bij de Universiteit van Amsterdam, priority 2008, published 2011)", "key": {"LBB preparations": {"system": "LBB preparations", "assay": "Tissue bath studies of LBB preparations of injected animals", "design": "species or system dog"}, "[1]": {"system": "neonatal rat cardiac myocytes overexpressing HCN4", "assay": "If activation curve, perforated patch-clamp, in HCN4 overexpressing NRCMs with PDE4 inhibition", "assay_type": "cell-based", "details": "100 nM rolipram", "description": "(§1) Neonatal rat cardiac myocytes and CMPCs were transduced with LV-HCN4-GFP, TBX3-GFP and LV-GFP at a MOI of 0.1, HEK 293 cells were transfected with both HCN4 and GFP or EVY deleted HCN4 and GFP. Single electrophysiological cell experiments were performed 7-10 days and 2 months after transducing NRCMs and CMPCs, respectively, or after the HEK 293 transfection. Myocytes were trypsinized during 30 seconds to prepare them for patch-clamping. By this procedure, cardiac myocytes lost their cell-to-cell connections, became less flattened (which facilitated the use of glass micropipettes), but remained attached to the coverslip.\nAction potentials, If and membrane currents were recorded at 36±0.2° using the perforated patch-clamp technique (Axopatch 200B Clamp amplifier, Axon Instruments Inc.). Signals were low-pass filtered (cut-off frequency: 5-kHz) and digitized at 5-kHz. Series resistance was compensated by ≧80%, and potentials were corrected for the estimated 15-mV change in liquid-junction potential. […]\nIf was characterized using custom voltage-clamp protocols modified from those published previously.^14,27 For current-voltage (I-V) relationships and activation properties, If was measured as Cs^+ sensitive (5 mM) current during 6-s hyperpolarizing steps (range −30 to −110 mV) from a holding potential of −30 mV. […]"}, "[2]": {"system": "neonatal rat cardiac myocytes", "assay": "Spontaneous activity of single control NRCMs with PDE4 inhibition", "assay_type": "cell-based", "details": "100 nM rolipram", "description": "as §1\nAction potentials, If and membrane currents were recorded at 36±0.2° using the perforated patch-clamp technique (Axopatch 200B Clamp amplifier, Axon Instruments Inc.). Signals were low-pass filtered (cut-off frequency: 5-kHz) and digitized at 5-kHz. Series resistance was compensated by ≧80%, and potentials were corrected for the estimated 15-mV change in liquid-junction potential. For voltage control, data acquisition, and analysis, custom-made software was used. Superfusion solution contained (mM): 140 NaCl, 5.4 KCl, 1.8 CaCl2, 1.0 MgCl2, 5.5 glucose, 5 HEPES; pH 7.4 (NaOH). Pipettes (2-3 MΩ, borosilicate glass) were filled with solution containing (mM): 125 K-gluc, 20 KCl, 5 NaCl, 0.22 amphotericin-B, 10 HEPES; pH 7.2 (KOH)."}}, "note": "Read-outs that look alike come from different tables or passages of the source.", "data": [{"smiles": "CC(C)NCC(O)c1ccc(O)c(O)c1", "note": "(stereo not shown) [isoproterenol, Isoproterenol]", "values": [{"measurement": "spontaneous rate of HCN2/SkM1 preparation", "setting": "LBB preparations", "value": "robust spontaneous activity sensitive to isoproterenol"}]}, {"smiles": "COc1ccc(C2CNC(=O)C2)cc1OC1CCCC1", "note": "(stereo not shown) [rolipram]", "values": [{"measurement": "shift in the If activation curve", "setting": "[1]", "value": "rightward shift in the If activation curve"}, {"measurement": "spontaneous activity", "setting": "[2]", "value": "remarkable increase in spontaneous activity"}]}, {"smiles": "COc1cc2c(cc1OC)CC(=O)N(CCCN(C)C[C@H]1Cc3cc(OC)c(OC)cc31)CC2", "note": "[Ivabradine]", "values": [{"measurement": "spontaneous rate of HCN2/SkM1 preparation", "setting": "LBB preparations; isoproterenol enhanced rhythm, HCN2/SkM1 injected animals", "value": "reductions in rate"}]}]}
